Like-named read-outs stand apart in the source and are kept apart here.
Assays:
[1] = tested on: Beet Armyworm (Spodoptera exigua) ("BAW"), second instar larvae; assay: Bioassay on beet armyworm (BAW), 128-well diet tray assay; assay type: in vivo; details: for BAW rating / BAW rating (% control or mortality class): Table ABC, species BAW; for BAW rating: C = not tested, D = no activity noticed; for pest or weed control at 50 µg/cm2: Spodoptera exigua; for BAW rating (% control or mortality class): 128-well diet tray assay, second instar larvae; for BAW (Biological Results, rating): Beet Armyworm (Spodoptera exigua), C = Not Tested
Summary of the method: (§1)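 Covered trays were held at 25° C. under a 14:10 light-dark cycle for five to seven days. Percent mortality was then scored in each well, and activity across eight wells was averaged.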

[2] = tested on: Cabbage Looper (Trichoplusia ni) ("CL"), second instar larvae; assay: Bioassay on cabbage looper (CL), 128-well diet tray assay; assay type: in vivo; details: for CL rating / mortality at 50 µg/cm2: Table ABC, species CL; for CL rating: C = not tested, D = no activity noticed; for pest or weed control at 50 µg/cm2 / mortality at 50 µg/cm2: Trichoplusia ni; for mortality at 50 µg/cm2: 128-well diet tray assay, second instar larvae, read-out: CL rating (% control or mortality class); for CL (Biological Results, rating): Cabbage Looper (Trichoplusia ni), C = Not Tested
Summary of the method: as §1

[3] = read-out: BAW (Biological Results, rating)
[4] = read-out: CL (Biological Results, rating)

Row | SMILES | pest or weed control at 50 µg/cm2 [1, 3] [%] | pest or weed control at 50 µg/cm2 [2, 4] [%] | also measured
1 | Cc1ccc(COCC(Cl)(Cl)Cl)c(N2C(=O)CS/C2=N\C(=O)Nc2ccc(-c3ncn(-c4ccc(OC(F)(F)F)cc4)n3)cc2F)c1 [Compound J452] |  |  | BAW rating [1]: A (50-100); CL rating [2]: A (50-100)
2 | Cc1cc(-c2ncn(-c3ccc(C(F)(F)F)cc3)n2)ccc1NC(=O)/N=C1\SCC(=O)N1c1cccc(C)c1COCC(F)(F)F [Compound J579] |  |  | BAW rating [1]: A (50-100); CL rating [2]: A (50-100)
3 | CCc1cc(-c2ncn(-c3ccc(OC(F)(F)F)cc3)n2)ccc1NC(=O)/N=C1\SCC(=O)N1c1cc(N(CC)CC)ccc1C(C)C [Compound J160, (Z)-1-(3-(5-(Diethylamino)-2-isopropylphenyl)-4-oxothiazolidin-2-ylidene)-3-(2-ethyl-4-(1-(4-(trifluoromethoxy)phenyl)-1H-1,2,4-triazol-3-yl)phenyl)urea] | 50 to 100 | 50 to 100 | 
4 | Cc1ccc(Cc2cccc(C(F)(F)F)c2)c(N2C(=O)CS/C2=N\C(=O)Nc2ccc(-c3ncn(-c4ccc(OC(F)(F)F)cc4)n3)cc2C)c1 [Compound J440, (Z)-1-(3-(5-Methyl-2-(3-(trifluoromethyl)benzyl)phenyl)-4-oxothiazolidin-2-ylidene)-3-(2-methyl-4-(1-(4-(trifluoromethoxy)phenyl)-1H-1,2,4-triazol-3-yl)phenyl)urea] |  |  | pest or weed control at 50 µg/cm2 ([1]; read-out: BAW rating): 50 to 100%; pest or weed control at 50 µg/cm2 ([2]; read-out: CL rating): 0 to 50%
5 | Cc1ccc(C(C)C)c(N2C(=O)CS/C2=N\C(=O)Nc2ccc(-n3cnc(-c4ccc(OC(F)(F)F)cc4)c3)cc2Cl)c1 [Compound J792, (Z)-1-(2-Chloro-4-(4-(4-(trifluoromethoxy)phenyl)-1H-imidazol-1-yl)phenyl)-3-(3-(2-isopropyl-5-methylphenyl)-4-oxothiazolidin-2-ylidene)urea] |  |  | BAW rating (% control or mortality class) [1]: A (50-100); mortality at 50 µg/cm2 [2]: 50 to 100%
6 | COc1ccc(-n2cnc(-c3ccc(NC(=O)/N=C4\SCC(=O)N4c4cc(C)c(C)cc4COCC(F)(F)F)c(F)c3)n2)cc1 [Compound J756, (Z)-1-(3-(4,5-Dimethyl-2-((2,2,2-trifluoroethoxy)methyl)phenyl)-4-oxothiazolidin-2-ylidene)-3-(2-fluoro-4-(1-(4-methoxyphenyl)-1H-1,2,4-triazol-3-yl)phenyl)urea] |  |  | pest or weed control at 50 µg/cm2 ([1]; read-out: BAW rating): 50 to 100%; pest or weed control at 50 µg/cm2 ([2]; read-out: CL rating): 50 to 100%
7 | Cc1ccc(C(C)C)c(N2C(=O)CS/C2=N\C(=O)Nc2ccc(-c3ncn(-c4ccc(OC(F)(F)C(F)(F)F)cc4)n3)c(C)c2)c1 [Compound J2] | 50 to 100 | 50 to 100 | 
8 | CN(C)c1ccc(OCCC(F)(F)F)c(N2C(=O)CS/C2=N\C(=O)Nc2ccc(-c3ncn(-c4ccc(C(F)(F)F)cc4)n3)cc2F)c1 [Compound J184, (Z)-1-(3-(5-(Dimethylamino)-2-(3,3,3-trifluoropropoxy)phenyl)-4-oxothiazolidin-2-ylidene)-3-(2-fluoro-4-(1-(4-(trifluoromethyl)phenyl)-1H-1,2,4-triazol-3-yl)phenyl)urea] | 50 to 100 | 50 to 100 | 
9 | COc1ccc(OCCC(F)(F)F)c(N2C(=O)CS/C2=N\C(=O)Nc2ccc(-c3ncn(-c4ccc(OC(F)(F)F)cc4)n3)cc2F)c1 [Compound J92, (Z)-1-(2-Fluoro-4-(1-(4-(trifluoromethoxy)phenyl)-1H-1,2,4-triazol-3-yl)phenyl)-3-(3-(5-methoxy-2-(3,3,3-trifluoropropoxy)phenyl)-4-oxothiazolidin-2-ylidene)urea] | 50 to 100 | 50 to 100 | 
10 | COc1ccc(OCCC(F)(F)F)c(N2C(=O)CS/C2=N\C(=O)Nc2ccc(-c3ncn(-c4ccc(OC(F)(F)F)cc4)n3)cc2)c1 [Compound J320, (Z)-1-(3-(5-Methoxy-2-(3,3,3-trifluoropropoxy)phenyl)-4-oxothiazolidin-2-ylidene)-3-(4-(1-(4-(trifluoromethoxy)phenyl)-1H-1,2,4-triazol-3-yl)phenyl)urea] | 50 to 100 | 50 to 100 | 
11 | COC(C)c1ccc(C)cc1N1C(=O)CS/C1=N\C(=O)Nc1ccc(-c2ncn(-c3ccc(C(F)(F)F)cc3)n2)cc1F (stereo not shown) [Compound J62, (Z)-1-(2-Fluoro-4-(1-(4-(trifluoromethyl)phenyl)-1H-1,2,4-triazol-3-yl)phenyl)-3-(3-(2-(1-methoxyethyl)-5-methylphenyl)-4-oxothiazolidin-2-ylidene)urea] | 50 to 100 | 50 to 100 | 
12 | Cc1ccc(CC(C)C)c(N2C(=O)CS/C2=N\C(=O)Nc2ccc(-c3ncn(-c4ccc(OC(F)(F)F)cc4)n3)cc2F)c1 [Compound J47, (Z)-1-(2-Fluoro-4-(1-(4-(trifluoromethoxy)phenyl)-1H-1,2,4-triazol-3-yl)phenyl)-3-(3-(2-isobutyl-5-methylphenyl)-4-oxothiazolidin-2-ylidene)urea] | 50 to 100 | 50 to 100 | 
13 | COCc1ccc(C)cc1N1C(=O)CS/C1=N\C(=O)Nc1ccc(-c2ncn(-c3ccc(C(F)F)cn3)n2)cc1F [Compound J345] |  |  | BAW (Biological Results, rating) [1]: A (50-100); CL (Biological Results, rating) [2]: A (50-100)
14 | Cc1ccc(COCC(F)(F)F)c(N2C(=O)CS/C2=N\C(=O)Nc2ccc(-c3cn(-c4ccc(C(F)(F)F)cn4)cn3)cc2C)c1 [Compound J511, (Z)-1-(3-(5-Methyl-2-((2,2,2-trifluoroethoxy)methyl)phenyl)-4-oxothiazolidin-2-ylidene)-3-(2-methyl-4-(1-(5-(trifluoromethyl)pyridin-2-yl)-1H-imidazol-4-yl)phenyl)urea] |  |  | pest or weed control at 50 µg/cm2 ([1]; read-out: BAW rating): 50 to 100%; pest or weed control at 50 µg/cm2 ([2]; read-out: CL rating): 50 to 100%
15 | CC(C)c1ccc(N(C)C)cc1N1C(=O)CS/C1=N\C(=O)Nc1ccc(-c2ccn(-c3ccc(C(F)(F)F)cn3)n2)cc1F [Compound J349] |  |  | BAW (Biological Results, rating) [1]: A (50-100); CL (Biological Results, rating) [2]: A (50-100)
16 | Cc1ccc(C(C)C)c(N2C(=O)CS/C2=N\C(=O)Nc2ccc(-c3ncn(-c4ccc(OC(F)(F)F)cc4)n3)cc2O)c1 [Compound J175, (Z)-1-(2-hydroxy-4-(1-(4-(trifluoromethoxy)phenyl)-1H-1,2,4-triazol-3-yl)phenyl)-3-(3-(2-isopropyl-5-methylphenyl)-4-oxothiazolidin-2-ylidene)urea] | 50 to 100 | 50 to 100 | 
17 | CCN(CC)c1ccc(C(C)C)c(N2C(=O)CS/C2=N\C(=O)Nc2ccc(-c3ncn(-c4ccc(OC(F)(F)F)cc4)n3)cc2C)c1 [Compound J129, (Z)-1-(3-(5-(Diethylamino)-2-isopropylphenyl)-4-oxothiazolidin-2-ylidene)-3-(2-methyl-4-(1-(4-(trifluoromethoxy)phenyl)-1H-1,2,4-triazol-3-yl)phenyl)urea] | 50 to 100 | 50 to 100 | 
18 | COC(C)c1ccc(C)cc1N1C(=O)CS/C1=N\C(=O)Nc1ccc(-c2ccn(-c3ccc(C(F)(F)F)cn3)n2)cc1F (stereo not shown) [Compound J309, (Z)-1-(2-Fluoro-4-(1-(5-(trifluoromethyl)pyridin-2-yl)-1H-pyrazol-3-yl)phenyl)-3-(3-(2-(1-methoxyethyl)-5-methylphenyl)-4-oxothiazolidin-2-ylidene)urea] | 50 to 100 | 50 to 100 | 
19 | Cc1ccc(COCC(F)(F)F)c(N2C(=O)CS/C2=N\C(=O)Nc2ccc(-c3ncn(-c4ccc(OCC(F)(F)F)cc4)n3)cc2F)c1 [Compound J764, (Z)-1-(2-Fluoro-4-(1-(4-(2,2,2-trifluoroethoxy)phenyl)-1H-1,2,4-triazol-3-yl)phenyl)-3-(3-(5-methyl-2-((2,2,2-trifluoroethoxy)methyl)phenyl)-4-oxothiazolidin-2-ylidene)urea] |  |  | pest or weed control at 50 µg/cm2 ([1]; read-out: BAW rating): 50 to 100%; pest or weed control at 50 µg/cm2 ([2]; read-out: CL rating): 50 to 100%
20 | Cc1ccc(COCC(F)(F)F)c(N2C(=O)CS/C2=N\C(=O)Nc2ccc(-c3ncn(-c4ccc(C(F)(F)C(F)(F)F)cc4)n3)cc2F)c1 [Compound J793, (Z)-1-(2-Fluoro-4-(1-(4-(perfluoroethyl)phenyl)-1H-1,2,4-triazol-3-yl)phenyl)-3-(3-(5-methyl-2-((2,2,2-trifluoroethoxy)methyl)phenyl)-4-oxothiazolidin-2-ylidene)urea] |  |  | BAW rating (% control or mortality class) [1]: A (50-100); mortality at 50 µg/cm2 [2]: 50 to 100%
21 | CCCc1ccc(N(C)C)cc1N1C(=O)CS/C1=N\C(=O)Nc1ccc(-c2ncn(-c3ccc(C(F)(F)F)cn3)n2)cc1C [Compound J294, (Z)-1-(3-(5-(Dimethylamino)-2-propylphenyl)-4-oxothiazolidin-2-ylidene)-3-(2-methyl-4-(1-(5-(trifluoromethyl)pyridin-2-yl)-1H-1,2,4-triazol-3-yl)phenyl)urea] | 50 to 100 | 50 to 100 | 
22 | Cc1cc(-n2cnc(-c3ccc(OC(F)(F)F)cc3)n2)ccc1NC(=O)/N=C1\SCC(=O)N1c1cc(N(C)C)ccc1C(C)C [Compound J469, (Z)-1-(3-(5-(Dimethylamino)-2-isopropylphenyl)-4-oxothiazolidin-2-ylidene)-3-(2-methyl-4-(3-(4-(trifluoromethoxy)phenyl)-1H-1,2,4-triazol-1-yl)phenyl)urea] |  |  | pest or weed control at 50 µg/cm2 ([1]; read-out: BAW rating): 50 to 100%; pest or weed control at 50 µg/cm2 ([2]; read-out: CL rating): 50 to 100%
23 | COC(C)c1ccc(C)cc1N1C(=O)CS/C1=N\C(=O)Nc1ccc(-c2ncn(-c3ccc(OC(F)(F)F)cn3)n2)cc1C (stereo not shown) [Compound J240, (Z)-1-(3-(2-(1-Methoxyethyl)-5-methylphenyl)-4-oxothiazolidin-2-ylidene)-3-(2-methyl-4-(1-(5-(trifluoromethoxy)pyridin-2-yl)-1H-1,2,4-triazol-3-yl)phenyl)urea] | 50 to 100 | 50 to 100 | 

Reference: US20230077362A1 (CORTEVA AGRISCIENCE LLC, priority 2019, published 2023)
